According to PMC4449006, “Targeting KRAS Oncogene in Colon Cancer Cells with 7-Carboxylate Indolo[3,2-b]quinoline Tri-Alkylamine Derivatives” (PLoS ONE, 2015):
Counter-ions that a name gives are not always drawn.

What was measured:
HSP90A G-quadruplex DNA = assay: FRET melting assay, HSP90A G-quadruplex DNA; format: binding; conditions: standard deviation < 0.2°C; for ΔTm (°C) HSP90A 1 μM: 1 μM compound; for ΔTm (°C) HSP90A 2 μM: 2 μM compound
Protocol: (§1) The capacity of compounds 1a-d, 2a-d and the standard G4 ligand TMPyP4 (Fig 1) to bind and stabilize KRAS [26] and HSP90A [27] G4 DNA structures as well as duplex DNA (T-loop) was evaluated by a Fluorescence Resonance Energy Transfer (FRET) melting assay. […] It was observed that the basicity of side chains correlates positively with thermal G4 stabilization of all DNA sequences up to an optimal pKa ~ 8.0–9.0 (Fig 2). Heterocyclic amines at the end of alkyl side chain (1b and 2b) appear to improve binding to G4s and complex stabilization compared to the di-ethylamine group (1a and 2a), which cannot be explained by differences in basicity between terminal groups. […] However, this was not observed for the isomeric pair 1a / 2a.
(§2) All oligonucleotides were purchased from Eurofins MWG Synthesis GmbH, Germany. The labeled oligonucleotides used in the FRET assays had attached the donor fluorophore FAM (6-carboxyfluorescein) and the acceptor fluorophore TAMRA (6-carboxytetramethylrhodamine): KRAS21R (5’-FAM-[…]-TAMRA-3’); HSP90A (5’- [FAM]-[…]-[TAMRA]-3’); T-Loop (5’-FAM-[…]-TAMRA-3’). Each oligonucleotide was initially diluted to a storage solution at 100 μM in nuclease free water (not DEPC-treated), purchased from Ambion Applied Biosystems UK.
(§3) The ability of IQ3A and TMPyP4 to stabilize G-quadruplex and duplex DNA sequences was investigated using a Fluorescence Resonance Energy Transfer (FRET) assay. Stock solution of the oligonucleotides sequences at 20 μM and subsequent dilutions were obtained from storage solutions diluting with K-cacodylate buffer pH = 7.4, containing 60 mM K^+ (10 mM potassium cacodylate, 50 mM KCl). The FRET probe sequences were diluted from stock to the correct concentration (0.4 μM) and then annealed by heating to 95°C for 10 min, followed by cooling to RT. Test compounds were prepared as 1 mM in 10% DMSO and 10% 1mM HCl in HPLC-grade water. The rest of the dilutions were performed using FRET buffer. Annealed DNA (50 μL) and compound solution (50 μL) were distributed across 96-well RT-PCR plates (BioRad; MJ Research, Waltham, MA, USA). Relevant controls were also performed to check for interference with the assay. Fluorescence readings were made on a DNA Engine Opticon (MJ Research) with excitation at 450–495 nm and detection at 515–545 nm, taken at intervals of 0.5°C in the range 30–100°C, with a constant temperature being maintained for 30 s prior to each reading to ensure a stable value. Experiments were performed in triplicate. Final analysis of the data was carried out with GraphPad Prism 5.0 software (GraphPad Software, Inc). The advanced curve-fitting function in GraphPad Prism was used for calculation of ΔT m values and associated standard deviations.

T-Loop duplex DNA = assay: FRET melting assay, duplex DNA; format: binding; conditions: standard deviation < 0.2°C; for ΔTm (°C) T-Loop 1 μM: 1 μM compound; for ΔTm (°C) T-Loop 2 μM: 2 μM compound
Protocol: as §1, §2, §3

KRAS21 G-quadruplex DNA = assay: FRET melting assay, KRAS G-quadruplex DNA; format: binding; conditions: standard deviation < 0.2°C; for ΔTm (°C) KRAS21 1 μM: 1 μM compound; for ΔTm (°C) KRAS21 2 μM: 2 μM compound
Protocol: as §1, §2, §3

HCT116 cells [1] = assay: MTS short-term cytotoxicity assay (72 h), HCT116; format: cell-based, human; conditions: for HCT116 IC65 / IC50: 72 h, MTS, standard errors ≤ 0.1; for Selective index (SI) = IC50 CCD-18co / IC50 HCT116: CCD18co vs HCT116; for IC50: Homo sapiens, HCT-116, read-out: HCT116 IC50
Protocol: (§4) The short-term effect of compounds at 72 h on cell growth was studied using colorectal carcinoma cell lines with different KRAS and TP53 genotypes: human colorectal carcinoma HCT116 (mut Kras, wild-type (wt) p53), and human metastatic colorectal adenocarcinoma SW620 (mut Kras, mut p53). In parallel, we also used the immortalized human embryonic kidney cell line HEK293T (wt Kras, wt p53) and normal human colon fibroblast cells CCD18co (wt Kras, wt p53).
(§5) SW620 human colorectal adenocarcinoma cells (European Collection of Cell Cultures, ECACC, Porton Down, Wiltshire, UK), HEK293T human embryonic kidney cells (ATCC, LGC Standards, UK) HCT116 human colon carcinoma cells (ECACC), HCT116 p53(+/+) and p53(−/−) isogenic human colon cancer cells (GRCF Cell Center and Biorepository, the Johns Hopkins University, School of Medicine, Baltimore, MD, USA), were grown in Dulbecco’s modified Eagle’s medium (DMEM) supplemented with 10% fetal bovine serum, and 1% antibiotic/antimycotic (Invitrogen, Grand Island, NY, USA), CCD18co human colon fibroblasts (ATCC, CRL-1459) were grown in Minimum Essential Medium (MEM) supplemented with 10% fetal bovine serum, 1% antibiotic/antimycotic, 2 mM GlutaMAX, 0,1 mM Non-essential amino acids (NEAA) (Invitrogen) and […] Recombinant Human TNF-α (Peprotech, USA) and maintained at 37°C in a humidified atmosphere of 5% CO2.
(§6) Cell viability was evaluated by the tetrazolium dye (MTS) Short-Term Cytotoxicity Assay. […] Following 72 h of compound exposure, cell viability was evaluated using the CellTiter 96 AQueous Non-Radioactive Cell Proliferation Assay (Promega, Madison, WI, USA), using 3-(4,5-dimethylthiazol-2-yl)-5-(3-carboxymethoxyphenyl)-2-(4-sulfophenyl)-2H-tetrazolium, inner salt (MTS) as previously described [35]. Cell viability data were expressed as mean ±SD from at least three independent experiments. IC50 and IC65 values were determined using GaphPad Prism v.5.00 (GraphPad Software). In selected experiments, cell viability was also assessed by trypan blue exclusion assay, and general cell death by LDH activity from cell culture supernatants.

SW620 cells [2] = assay: MTS short-term cytotoxicity assay (72 h), SW620; format: cell-based; conditions: for SW620 IC65 / IC50: 72 h, MTS, standard errors ≤ 0.1; for IC50: Homo sapiens, SW-620, read-out: SW620 IC50
Protocol: as §4, §5, §6

CCD18co cells = assay: MTS short-term cytotoxicity assay (72 h), CCD18co; format: cell-based; conditions: Homo sapiens, CCD-18Co, MTS, standard errors ≤ 0.1, read-out: CCD18co IC50
Protocol: as §4, §5, §6

KRAS mRNA = KRAS mRNA steady-state levels by Taqman Real-time RT-PCR; conditions: IC50 concentrations
HCT116 cells [3] = system: HCT116 cells; design: method as in PMID 23960016; conditions: HCT116 vs primary rat hepatocytes; cited from earlier work
HEK293T cells = assay: MTS short-term cytotoxicity assay (72 h), HEK293T; format: cell-based, human; conditions: MTS; for IC50: Homo sapiens, HEK-293T, standard errors ≤ 0.1, read-out: HEK293T IC50; for HEK293T IC65: standard errors ≤ 0.1
Protocol: as §4, §5, §6

SW620 cells [4] = assay: Guava ViaCount assay, SW620; format: cell-based, human; conditions: SW620, 72 h, IC50 and IC65 concentrations
Source text: Subsequently, the Guava ViaCount assay was used to evaluate the effects of IQ3A compounds on cell death induction in cancer (HCT116 and SW620) and non-malignant (HEK293T and CCD18co) cells, compared to 5-FU and TMPyP4 at equitoxic concentrations (IC50 and IC65). Down-regulation of mutant KRAS expression by antisense oligonucleotides in colorectal cancer cells,[8],[30] and by a MAZ-binding oligonucleotide decoy in pancreatic cancer cells has been associated with increased apoptosis and cell growth arrest. Also, anticancer drugs, such as 5-FU and G4 stabilizers of telomeric and oncogene promoter sequences such as TMPyP4, are known to induce a generalized cell response leading to cell growth arrest and cell death by apoptosis (DNA damage response),[32], which involves activation of the pro-apoptotic transcription factor p53 among other pathways in the case of 5-FU [34]. […] The effect of TMPyP4 on SW620 was not studied, as this cell line was not sensitive to this compound up to a 20 μM concentration.
Fig 3 Exposure to IQ3A compounds induces cell death, mainly by apoptosis in HCT116 cells. […] Results are expressed as the mean percentage (%) of viable, mid-apoptotic and dead cells ± SEM, of at least three different experiments, for A. IC50, and for B. IC65 compound concentrations. a, p < 0.05; b, p < 0.01 from DMSO (vehicle control); c, p < 0.05; and d, p < 0.01 from 5-FU. […]

melting point [°C] | SMILES | ΔTm (°C) HSP90A 1 μM (HSP90A G-quadruplex DNA) [°C] | ΔTm (°C) HSP90A 2 μM (HSP90A G-quadruplex DNA) [°C] | ΔTm (°C) T-Loop 1 μM (T-Loop duplex DNA) [°C] | ΔTm (°C) T-Loop 2 μM (T-Loop duplex DNA) [°C] | ΔTm (°C) KRAS21 1 μM (KRAS21 G-quadruplex DNA) [°C] | ΔTm (°C) KRAS21 2 μM (KRAS21 G-quadruplex DNA) [°C] | HCT116 IC65 (HCT116 cells [1]) [nM] | Selective index (SI) = IC50 CCD-18co / IC50 HCT116 (HCT116 cells [1]) | IC50 (HCT116 cells [1]) [nM] | SW620 IC65 (SW620 cells [2]) [nM] | IC50 (SW620 cells [2]) [nM] | IC50 (CCD18co cells) [nM] | down-regulation of KRAS transcription (mRNA) (KRAS mRNA; HCT116, 72 h) [%] | down-regulation of KRAS transcription (mRNA) (KRAS mRNA; SW620, 72 h) | Selective growth inhibition of KRAS mutant HCT116 cells compared to primary rat hepatocytes (HCT116 cells [3]) [fold] | IC50 (HEK293T cells) [nM] | HEK293T IC65 (HEK293T cells) [nM] | IC50 fold lower than that of 5-FU (SW620 cells [2]; SW620 cells) [fold] | induction of apoptosis / cell death (SW620 cells [4])
159 to 164 | O=C(OCCN1CCCC1)c1ccc2c(c1)c1nc3ccccc3c(OCCN3CCCC3)c1n2CCN1CCCC1 (as salt: salt) [1b] | – | – | – | – | – | – | – | – | – | – | – | – | – | – | – | – | – | – | –
141 to 145 | O=C(OCCN1CCOCC1)c1ccc2c(c1)c1nc3ccccc3c(OCCN3CCOCC3)c1n2CCN1CCOCC1 (as salt: salt) [1c] | – | – | – | – | – | – | – | – | – | – | – | – | – | – | – | – | – | – | –
124 to 128 | O=C(OCCCN1CCCCC1)c1ccc2c(c1)c1nc3ccccc3c(OCCCN3CCCCC3)c1n2CCCN1CCCCC1 (as salt: salt) [1d] | – | – | – | – | – | – | – | – | – | – | – | – | – | – | – | – | – | – | –
– | O=C(OCCN1CCCC1)c1ccc2c(c1)c1nc3ccccc3c(OCCN3CCCC3)c1n2CCN1CCCC1 [1b] | 12 | 16 | <2 | 6 | 5 | 10 | – | – | – | – | – | – | – | – | – | – | – | – | –
– | O=C(OCCN1CCOCC1)c1ccc2c(c1)c1nc3ccccc3c(OCCN3CCOCC3)c1n2CCN1CCOCC1 [1c] | 4 | 7 | <2 | <2 | <2 | <2 | – | – | – | – | – | – | – | – | – | – | – | – | –
– | O=C(OCCCN1CCCCC1)c1ccc2c(c1)c1nc3ccccc3c(OCCCN3CCCCC3)c1n2CCCN1CCCCC1 [1d] | 15 | 21 | <2 | 10 | 9 | 18 | – | – | – | – | – | – | – | – | – | – | – | – | –
– | CCN(CC)CCOC(=O)c1ccc2c(c1)c1c(c(=O)c3ccccc3n1CCN(CC)CC)n2CCN(CC)CC [2a] | 11 | 15 | <2 | <2 | 4 | 7 | 1600 | 5.46 | 990 | 1440 | 670 | 5410 | ~40 | not significantly so | 100 | 670 | 940 | – | –
– | O=C(OCCN1CCCC1)c1ccc2c(c1)c1c(c(=O)c3ccccc3n1CCN1CCCC1)n2CCN1CCCC1 [2b] | 14 | 19 | 3 | 6 | 10 | 16 | – | – | – | – | – | – | – | – | – | – | – | – | –
– | O=C(OCCCN1CCCCC1)c1ccc2c(c1)c1c(c(=O)c3ccccc3n1CCCN1CCCCC1)n2CCCN1CCCCC1 [2d] | 19 | 25 | 4 | 12 | 13 | 22 | 580 | 5.45 | 400 | 450 | 280 | 2180 | ~40 | not significantly so | – | 700 | 1120 | ~20 | –
– | O=c1[nH]cc(F)c(=O)[nH]1 [5-FU, 5-fluorouracil, reference compound] | – | – | – | – | – | – | 4130 | > 42 | 2380 | 8320 | 5390 | > 100000 | – | – | – | 2660 | 4130 | – | able to induce apoptosis in a dose-dependent manner
